ChEMBL document CHEMBL5625182, “Synthesis and antibacterial activities of baulamycin A inspired derivatives” (Eur J Med Chem, 2023)
≈ marks a conversion by molar mass, not a printed value. Calls of active or inactive are those of the source. No cut-off for these calls is given here.

Key:
[1] = tested on: Cell membrane; experiment: Induction of membrane disruption in methicillin resistant Staphylococcus aureus CCARM3167 at MIC incubated for 30 mins PI staining based Flow cytometry
[2] = tested on: Staphylococcus aureus; experiment: Antibacterial activity against […] Staphylococcus aureus ATCC25923 assessed as inhibition in bacterial growth incubated for 18 hrs by microdilution method; format: functional
[3] = tested on: Escherichia coli; experiment: Antibacterial activity against Escherichia coli MC1061 assessed as inhibition of bacterial growth incubated for 18 hrs by microdilution method; format: functional
[4] = tested on: Staphylococcus aureus; experiment: Antibacterial activity against quinolone-resistant Staphylococcus aureus CCARM3505 assessed as inhibition of bacterial growth incubated for 18 hrs by microdilution method; format: functional
[5] = tested on: Staphylococcus aureus; experiment: Antibacterial activity against methicillin resistance Staphylococcus aureus assessed as reduction in biofilm formation at 1/2 times MIC incubated 24 hrs by crystal violet staining based microplate reader analysis; format: functional, organism-based
[6] = tested on: Salmonella typhimurium; experiment: Antibacterial activity against Salmonella typhimurium ATCC14028 assessed as inhibition of bacterial growth incubated for 18 hrs by microdilution method; format: functional, Salmonella enterica subsp. enterica serovar Typhimurium; conditions: Salmonella enterica
[7] = Antibacterial activity against Bacillus subtilis ATCC6633 assessed as inhibition of bacterial growth incubated for 18 hrs by microdilution method; format: functional, Bacillus subtilis […]
[8] = target: T1, L-2,3-diaminopropanoate--citrate ligase (Staphylococcus aureus (strain NCTC 8325 / PS 47), UniProt Q2G1M9); experiment: Inhibition of Staphylococcus aureus SbnE incubated for 1 hr by malachite green staining based microplate reader analysis
T1 sequence (Q2G1M9 whole entry): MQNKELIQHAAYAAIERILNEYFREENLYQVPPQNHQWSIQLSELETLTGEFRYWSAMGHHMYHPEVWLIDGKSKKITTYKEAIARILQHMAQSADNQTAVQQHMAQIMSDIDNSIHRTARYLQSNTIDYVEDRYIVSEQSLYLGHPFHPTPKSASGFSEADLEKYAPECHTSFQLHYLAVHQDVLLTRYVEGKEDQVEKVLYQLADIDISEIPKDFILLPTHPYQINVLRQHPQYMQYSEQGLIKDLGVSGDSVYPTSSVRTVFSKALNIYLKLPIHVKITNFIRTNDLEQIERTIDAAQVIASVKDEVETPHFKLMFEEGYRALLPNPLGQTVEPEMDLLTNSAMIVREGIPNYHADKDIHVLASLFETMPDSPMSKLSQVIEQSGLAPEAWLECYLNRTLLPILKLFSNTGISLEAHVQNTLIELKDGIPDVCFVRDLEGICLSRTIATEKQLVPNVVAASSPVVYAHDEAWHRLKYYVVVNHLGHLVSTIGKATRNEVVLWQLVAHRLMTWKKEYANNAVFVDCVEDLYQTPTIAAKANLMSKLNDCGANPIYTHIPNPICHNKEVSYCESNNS

[9] = tested on: Bacillus cereus; experiment: Antibacterial activity against Bacillus cereus ATCC27348 assessed as inhibition of bacterial growth incubated for 18 hrs by microdilution method; format: functional
[10] = tested on: Staphylococcus aureus; experiment: Antibacterial activity against methicillin resistance Staphylococcus aureus CCARM3167 assessed as inhibition of siderophore production at 1/4 times MIC incubated for 18 hrs by CAS liquid assay; format: functional, organism-based
[11] = target: T2, L-2,3-diaminopropanoate--citrate ligase (Staphylococcus aureus (strain NCTC 8325 / PS 47)) (UniProt Q2G1M9); experiment: Inhibition of Staphylococcus aureus SbnE at 50 uM incubated for 1 hr by malachite green staining based microplate reader analysis relative to control
T2 sequence (whole entry): T1 sequence (Q2G1M9 whole entry)

[12] = tested on: Staphylococcus aureus; experiment: Antibacterial activity against Staphylococcus aureus ATCC25923 assessed as inhibition of siderophore production at 1/2 times MIC incubated for 18 hrs by CAS liquid assay; format: functional, organism-based
[13] = tested on: Staphylococcus aureus; experiment: Antibacterial activity against methicillin resistant Staphylococcus aureus CCARM3167 assessed as inhibition in bacterial growth incubated for 18 hrs by microdilution method; format: functional

Structure (SMILES) | Activity [1] | MIC [2] [µg/mL] | MIC [3] [µg/mL] | MIC [4] [µg/mL] | Activity [5] | MIC [6] [µg/mL] | MIC [7] [µg/mL] | IC50 [8] [µM] | MIC [9] [µg/mL] | Activity [10] | inhibition [11] [%] | Activity [12] | MIC [13] [µg/mL]
CC(C)C[C@@H]([C@H](O)C[C@H](O)CCCCCCCCNCc1ccccc1)[C@@H](O)c1cc(O)cc(O)c1 | Active | 2 (≈ 3.99 µM) | 0.25 (≈ 0.498 µM) | 0.5 (≈ 0.997 µM) | Active | 4 (≈ 7.97 µM) | 4 (≈ 7.97 µM) | 41.1 | 1 (≈ 1.99 µM) | inactive | 57.9 | inactive | 0.5 (≈ 0.997 µM)
CC(C)C[C@H]([C@H](O)CCN)[C@@H](O)c1cc(O)cc(O)c1 |  | > 256 |  |  |  |  |  | 1.81 |  | inactive | 97.2 | inactive | > 256
CC(C)C[C@H]([C@H](O)CCNCc1ccccc1)[C@@H](O)c1cc(O)cc(O)c1 |  | > 256 |  |  |  |  |  | 3.45 |  | inactive | 97.1 | inactive | > 256
C[C@@H](COCc1ccccc1)C[C@H](C)C[C@H](C)C#CC(O)C[C@@H](O)c1cc(O)cc(O)c1 (stereo partly drawn) | Active | 128 (≈ 291 µM) | > 256 | 128 (≈ 291 µM) | Active | > 256 | > 256 | 8.94 | 64 (≈ 145 µM) |  | 76.4 |  | 256 (≈ 581 µM)
CC(C)C[C@H]([C@H](O)CCNc1cccc(C(F)(F)F)c1)[C@@H](O)c1cc(O)cc(O)c1 | Active | 8 (≈ 18.7 µM) | > 256 | 8 (≈ 18.7 µM) | Active | > 256 | 64 (≈ 150 µM) | 6.12 | 8 (≈ 18.7 µM) |  | 71.1 |  | 16 (≈ 37.4 µM)
CC(C)C[C@H]([C@H](O)C[C@H](O)C#C[C@@H](C)C[C@H](C)C[C@@H](C)COCc1ccccc1)[C@@H](O)c1cc(O)cc(O)c1 | Active | 8 (≈ 14.8 µM) | > 256 | 16 (≈ 29.6 µM) | Active | > 256 | > 256 | 5.49 | > 256 |  | 71.7 |  | 4 (≈ 7.4 µM)
